Results published in US11339130B1 (Blade Therapeutics, Inc., priority 2016, dated 2022).
Where two headings read alike, the source gives them in different places.

Tests used:
Type in all cases: biochemical
Human Calpain 9/NS1 = biological target: T1, Human Calpain 9/NS1 (Homo sapiens, UniProt O14815); experiment: Calpain inhibition continuous fluorescence (FRET) assay, Human Calpain 9/NS1; conditions: read-out: Human Calpain 9/NS1 IC50
T1 sequence (O14815 1-690): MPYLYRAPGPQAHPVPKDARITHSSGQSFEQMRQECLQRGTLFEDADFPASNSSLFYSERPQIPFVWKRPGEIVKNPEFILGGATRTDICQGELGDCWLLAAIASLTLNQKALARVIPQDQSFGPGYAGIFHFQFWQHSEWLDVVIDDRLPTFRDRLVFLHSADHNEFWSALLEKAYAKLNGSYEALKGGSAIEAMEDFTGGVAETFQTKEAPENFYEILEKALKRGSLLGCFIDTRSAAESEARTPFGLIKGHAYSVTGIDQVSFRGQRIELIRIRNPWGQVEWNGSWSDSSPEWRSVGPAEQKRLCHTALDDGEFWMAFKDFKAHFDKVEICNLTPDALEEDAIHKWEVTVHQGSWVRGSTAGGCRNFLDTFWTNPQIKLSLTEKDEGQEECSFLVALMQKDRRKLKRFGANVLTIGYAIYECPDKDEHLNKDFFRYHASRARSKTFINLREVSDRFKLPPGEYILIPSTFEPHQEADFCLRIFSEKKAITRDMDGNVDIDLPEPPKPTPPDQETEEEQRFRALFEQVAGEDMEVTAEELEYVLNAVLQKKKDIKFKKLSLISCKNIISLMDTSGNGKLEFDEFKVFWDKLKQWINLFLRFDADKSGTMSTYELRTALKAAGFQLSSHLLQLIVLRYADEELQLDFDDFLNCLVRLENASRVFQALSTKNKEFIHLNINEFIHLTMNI
T1 sequence (P04632 1-268 partner): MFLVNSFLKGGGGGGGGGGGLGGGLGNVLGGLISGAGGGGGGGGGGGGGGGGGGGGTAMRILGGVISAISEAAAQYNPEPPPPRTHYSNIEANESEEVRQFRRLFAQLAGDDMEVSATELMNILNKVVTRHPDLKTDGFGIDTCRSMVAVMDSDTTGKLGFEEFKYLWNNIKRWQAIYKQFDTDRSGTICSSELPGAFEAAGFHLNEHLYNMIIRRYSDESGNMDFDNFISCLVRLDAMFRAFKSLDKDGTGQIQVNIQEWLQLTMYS
Summary of the method: (§1)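 Buffer 50 mM Tris pH 7.5/100 mM NaCl/1 mM DTT; enzyme + cpd preinc 25C; start w/ FRET substrate + CaCl2; kinetic 490/520 nm, 10 min; slopes 1-5 min; 4-PL IC50.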

Human Calpain 1/NS1 = biological target: T2, Human Calpain 1/NS1 (Homo sapiens, UniProt P07384); experiment: Calpain inhibition continuous fluorescence (FRET) assay, Human Calpain 1/NS1; conditions: read-out: Human Calpain 1/NS1 IC50
T2 sequence (P07384 1-714): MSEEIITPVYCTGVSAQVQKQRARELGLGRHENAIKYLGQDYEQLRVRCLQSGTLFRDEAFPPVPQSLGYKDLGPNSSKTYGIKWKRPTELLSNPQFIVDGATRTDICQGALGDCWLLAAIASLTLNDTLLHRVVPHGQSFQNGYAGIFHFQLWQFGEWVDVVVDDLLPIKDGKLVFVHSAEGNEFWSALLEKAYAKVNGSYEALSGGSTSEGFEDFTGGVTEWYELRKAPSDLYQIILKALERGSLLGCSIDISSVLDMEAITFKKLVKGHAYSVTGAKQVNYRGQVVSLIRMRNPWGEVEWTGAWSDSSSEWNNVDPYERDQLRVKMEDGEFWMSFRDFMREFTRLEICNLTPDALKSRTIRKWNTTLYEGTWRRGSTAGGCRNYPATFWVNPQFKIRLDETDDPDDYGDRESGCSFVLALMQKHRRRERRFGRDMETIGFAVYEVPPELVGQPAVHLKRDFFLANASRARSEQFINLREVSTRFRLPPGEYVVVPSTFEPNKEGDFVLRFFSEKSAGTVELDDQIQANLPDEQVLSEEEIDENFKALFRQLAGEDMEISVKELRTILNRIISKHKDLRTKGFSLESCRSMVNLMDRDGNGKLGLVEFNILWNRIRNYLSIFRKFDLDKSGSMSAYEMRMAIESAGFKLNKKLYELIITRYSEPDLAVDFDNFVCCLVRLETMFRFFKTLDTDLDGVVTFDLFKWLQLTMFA
T2 sequence (P04632 1-268 partner): T1 sequence (P04632 1-268 partner)
Summary of the method: as §1

Human Calpain 2/NS1 = biological target: T3, Human Calpain 2/NS1 (Homo sapiens, UniProt P17655); experiment: Calpain inhibition continuous fluorescence (FRET) assay, Human Calpain 2/NS1; conditions: read-out: Human Calpain 2/NS1 IC50
T3 sequence (P17655 1-700): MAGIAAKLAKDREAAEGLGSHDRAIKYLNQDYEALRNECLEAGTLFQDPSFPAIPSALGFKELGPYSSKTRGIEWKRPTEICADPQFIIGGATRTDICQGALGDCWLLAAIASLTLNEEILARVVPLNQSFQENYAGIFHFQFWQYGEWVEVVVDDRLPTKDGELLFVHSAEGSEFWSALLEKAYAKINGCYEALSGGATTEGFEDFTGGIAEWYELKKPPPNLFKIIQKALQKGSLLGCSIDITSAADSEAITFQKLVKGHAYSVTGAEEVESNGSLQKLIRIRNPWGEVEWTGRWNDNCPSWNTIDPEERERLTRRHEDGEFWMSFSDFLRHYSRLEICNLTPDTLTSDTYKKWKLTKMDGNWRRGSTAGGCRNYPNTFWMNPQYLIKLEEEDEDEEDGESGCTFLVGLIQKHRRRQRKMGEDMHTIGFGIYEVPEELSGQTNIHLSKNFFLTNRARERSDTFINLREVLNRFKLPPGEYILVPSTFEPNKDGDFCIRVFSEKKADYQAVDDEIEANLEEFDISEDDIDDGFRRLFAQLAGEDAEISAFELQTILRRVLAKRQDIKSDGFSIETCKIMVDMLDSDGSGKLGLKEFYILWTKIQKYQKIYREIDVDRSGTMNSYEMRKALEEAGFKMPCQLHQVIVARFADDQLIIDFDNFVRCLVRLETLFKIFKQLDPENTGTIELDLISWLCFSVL
T3 sequence (P04632 1-268 partner): T1 sequence (P04632 1-268 partner)
Summary of the method: as §1

Row | IC50 (Human Calpain 9/NS1; Column C) | IC50 (Human Calpain 1/NS1; Column A) | IC50 (Human Calpain 2/NS1; Column B) | IC50 (Human Calpain 9/NS1) | IC50 (Human Calpain 1/NS1) | IC50 (Human Calpain 2/NS1) | Molecule
1 | < 3 µM | < 3 µM | < 3 µM |  |  |  | C=CCOc1ccc(C[C@@H](C=O)NC(=O)c2cc(C)nn2-c2ccccn2)cc1 [Compound 93, (S)—N-(1-(4-(allyloxy)phenyl)-3-oxopropan-2-yl)-3-methyl-1-(pyridin-2-yl)-1H-pyrazole-5-carboxamide]
2 | < 3 µM | < 3 µM | < 3 µM |  |  |  | O=C(NC1CC1)C(=O)[C@H](Cc1ccccc1)NC(=O)c1scnc1-n1ncc2ccccc21 [Compound 86, (S)—N-(4-(cyclopropylamino)-3,4-dioxo-1-phenylbutan-2-yl)-4-(1H-indazol-1-yl)thiazole-5-carboxamide]
3 | < 3 µM | < 3 µM | < 3 µM |  |  |  | Cc1cc(C(=O)N[C@@H](Cc2ccccc2)C(=O)C(=O)NC2CC2)n(-c2cccnc2)n1 [Compound 132, (S)—N-(4-(cyclopropylamino)-3,4-dioxo-1-phenylbutan-2-yl)-3-methyl-1-(pyridin-3-yl)-1H-pyrazole-5-carboxamide]
4 | < 3 µM | < 3 µM | < 3 µM |  |  |  | NC(=O)C(=O)[C@H](Cc1ccccc1)NC(=O)c1c(F)cnn1-c1ccccc1 [Compound 258, (S)—N-(4-amino-3,4-dioxo-1-phenylbutan-2-yl)-4-fluoro-1-phenyl-1H-pyrazole-5-carboxamide]
5 | < 3 µM | < 3 µM | < 3 µM |  |  |  | Cc1noc(-n2ccc(-c3ccccc3)n2)c1C(=O)N[C@@H](Cc1ccccc1)C(=O)C(N)=O [Compound 211, (S)—N-(4-amino-3,4-dioxo-1-phenylbutan-2-yl)-3-methyl-5-(3-phenyl-1H-pyrazol-1-yl)isoxazole-4-carboxamide]
6 |  |  |  | < 3 µM | < 3 µM | < 3 µM | Cn1cc(C(=O)NC(Cc2ccccc2)C(=O)C(N)=O)c(-c2ccc(Cl)s2)n1 (stereo not drawn) [Compound 621, N-(4-amino-3,4-dioxo-1-phenylbutan-2-yl)-3-(5-chlorothiophen-2-yl)-1-methyl-1H-pyrazole-4-carboxamide]
7 | > 10 µM | > 10 µM | > 10 µM |  |  |  | Cc1cc(C(=O)N[C@@H](Cc2ccccc2)C(=O)C(=O)NC2CC2)n(-c2ncccn2)n1 [Compound 65, (S)—N-(4-(cyclopropylamino)-3,4-dioxo-1-phenylbutan-2-yl)-3-methyl-1-(pyrimidin-2-yl)-1H-pyrazole-5-carboxamide]
8 | 3 to 10 µM | 3 to 10 µM | < 3 µM |  |  |  | Cc1cc(C(=O)N[C@@H](Cc2ccccc2)C(=O)C(N)=O)nn1-c1ncc(-c2ccccc2)o1 [Compound 114, (S)—N-(4-amino-3,4-dioxo-1-phenylbutan-2-yl)-5-methyl-1-(5-phenyloxazol-2-yl)-1H-pyrazole-3-carboxamide]
9 | < 3 µM | < 3 µM | < 3 µM |  |  |  | Cn1ncc(C(=O)N[C@@H](Cc2ccccc2)C(=O)C(N)=O)c1-c1cccc(C(F)(F)F)n1 [Compound 194, (S)—N-(4-amino-3,4-dioxo-1-phenylbutan-2-yl)-1-methyl-5-(6-(trifluoromethyl)pyridin-2-yl)-1H-pyrazole-4-carboxamide]
10 |  |  |  | 3 to 10 µM | 3 to 10 µM | 3 to 10 µM | Cn1ncc(C(=O)NC(Cc2ccccc2)C(=O)C(N)=O)c1Cc1ccccc1 (stereo not drawn) [Compound 488, N-(4-amino-3,4-dioxo-1-phenylbutan-2-yl)-5-benzyl-1-methyl-1H-pyrazole-4-carboxamide]
11 |  |  |  | < 3 µM | < 3 µM | < 3 µM | Cn1cc(C(=O)NC(Cc2ccccc2)C(=O)C(N)=O)c(-c2cccs2)n1 (stereo not drawn) [Compound 615, N-(4-amino-3,4-dioxo-1-phenylbutan-2-yl)-1-methyl-3-(thiophen-2-yl)-1H-pyrazole-4-carboxamide]
12 | 3 to 10 µM | < 3 µM | < 3 µM |  |  |  | O=C[C@H](Cc1ccccc1)NC(=O)c1cncn1-c1ncc(-c2ccccc2)cn1 [Compound 75]
13 |  |  |  | 3 to 10 µM | < 3 µM | < 3 µM | (S)—N-(4-amino-3,4-dioxo-1-phenylbutan-2-yl)-1-(tert-butyl)-3-methyl-1H-pyrazole-5-carboxamide [Compound 310]
14 | < 3 µM | < 3 µM | 3 to 10 µM |  |  |  | Cc1nc(-c2cccc(C(F)(F)F)n2)c(C(=O)NC(Cc2ccccc2)C(=O)C(N)=O)o1 (stereo not drawn) [Compound 287]
15 | 3 to 10 µM | < 3 µM | < 3 µM |  |  |  | O=C(NC1CC1)C(=O)[C@H](Cc1ccccc1)NC(=O)c1cncn1-c1ncc(-c2ccccc2)s1 [Compound 53, (S)—N-(4-(cyclopropylamino)-3,4-dioxo-1-phenylbutan-2-yl)-1-(5-phenylthiazol-2-yl)-1H-imidazole-5-carboxamide]
16 | < 3 µM | < 3 µM | < 3 µM |  |  |  | O=C[C@H](Cc1ccccc1)NC(=O)c1cncn1-c1ccccn1 [Compound 31, (S)—N-(1-oxo-3-phenylpropan-2-yl)-1-(pyridin-2-yl)-1H-imidazole-5-carboxamide]
17 | > 10 µM | < 3 µM | > 10 µM |  |  |  | Cc1noc(-c2ccccc2)c1C(=O)N[C@@H](Cc1ccccc1)C(=O)C(=O)NCc1ccc2c(c1)OCO2 [Compound 225, (S)—N-(4-((benzo[d][1,3]dioxol-5-ylmethyl)amino)-3,4-dioxo-1-phenylbutan-2-yl)-3-methyl-5-phenylisoxazole-4-carboxamide]
18 | > 10 µM | > 10 µM | > 10 µM |  |  |  | Cc1noc(-c2ccccc2)c1C(=O)N[C@@H](Cc1ccccc1)C(=O)C(=O)NCc1ccc(Cl)c(Cl)c1 [Compound 101, (S)—N-(4-((3,4-dichlorobenzyl)amino)-3,4-dioxo-1-phenylbutan-2-yl)-3-methyl-5-phenylisoxazole-4-carboxamide]
19 |  |  |  | < 3 µM | < 3 µM | < 3 µM | NC(=O)C(=O)[C@H](Cc1ccccc1)NC(=O)c1cc2ccccc2n1-c1ccccc1 [Compound 307, (S)—N-(4-amino-3,4-dioxo-1-phenylbutan-2-yl)-1-phenyl-1H-indole-2-carboxamide]
